# Assay results published in patent US12545699B2, “Bivalent LECA inhibitors targeting biofilm formation of Pseudomonas aeruginosa” (HELMHOLTZ-ZENTRUM FÜR INFEKTIONSFORSCHUNG GMBH, priority 2019, dated 2026).
# Columns and labels:
# LecA [1] = target: T1, LecA (Pseudomonas aeruginosa, UniProt Q05097); test: competitive binding assay based on fluorescence polarisation (FP)
# T1 construct: made in house
# Procedure: Binding of ligands to LecA was evaluated in competitive assay based on fluorescence polarisation.
# LecA [2] = target: T1, LecA; test: surface plasmon resonance (SPR) direct binding to immobilised LecA
# Procedure: All experiments were performed on a BIACORE X100 instrument (GE Healthcare) at 25° C. and a flow rate of 10 μL min^−1. […] LecA was dissolved in 10 mM sodium acetate pH 4.5 (100 μg mL^−1) and injected over the activated chip surface on channel 2 (contact time of 540 s) until the response of ˜4000 RU was reached. Excess free amine groups were capped with an injection of 1 M ethanolamine (contact time 540 s). Bivalent compounds were dissolved in 100% DMSO and subsequently diluted to required concentrations in a running buffer (10 mM phosphate buffer pH 7.4, 2.7 mM KCl, 137 mM NaCl, 100 μM CaCl2, 0.05% Tween 20, 5% DMSO). The bivalent analytes were subjected to single-cycle kinetics analyses (contact time of 120 s and dissociation time of 120 s) consisting of injections of the analytes at 0, 10, 50, 100, and 200 nM over the immobilised-LecA. The chip surface was regenerated by 5× injections of 100 μM 4-nitrophenyl-β-D-galactose (contact time of 120 s). KD determination was performed using BIACORE X100 evaluation software (version 2.0) by applying 1:1 binding model to fit the experimental data. • [1] H. E. Gottlieb, V. Kotlyar, A. Nudelman, J. Org. Chem. 1997, 62, 7512-7515. • [2] M. Seligman, J. Biol. Chem. 1952, 195, 239-249. • [3] S. T. Xue, W. Y. He, L. L. Ma, H. Q. Wang, B. Wang, G. H. Zheng, X. Y. Ji, T. Zhang, Y. H. Li, J. D. Jiang, et al., Molecules 2013, 18, 3789-3805. • [4] Y. Li, H. Mo, G. Lian, B. Yu, Carbohydr. Res. 2012, 363, 14-22. • [5] F. Yang, F. Xie, Y. Zhang, Y. Xia, W. Liu, F. Jiang, C. Lam, Y. Qiao, D. Xie, J. Li, et al., Bioorganic Med. Chem. Lett. 2017, 27, 2166-2170. Synthesis Schemes and Results of Biophysical Assays
# LecA [3] = target: T1, LecA; test: isothermal titration microcalorimetry (ITC); format: binding; details: Table 5, ITC, 25° C.
# Procedure: Expression and purification of LecA as well as competitive binding by fluorescence polarization was performed as described by Joachim et al. (Org. Biomol. Chem. 2016). Microcalorimetry was performed using an ITC200 (GE Healthcare) at highest possible LecA concentration (typically 200-400 μM) in the cell and titration of ligand in the same buffer at 25° C.
# [4] = IC50, Table 3, TBS/Ca2+ buffer in presence of 25% DMSO
# [5] = FP IC50, Table 1, 20 μM LecA, 10 nM reporter ligand 8, TBS/Ca2+ buffer with 25% DMSO (**)
# [6] = 100 μM LecA, 0.5 mM 35, TBS/Ca2+ buffer
# [7] = 110 μM LecA, 1 mM 35, TBS/Ca2+ buffer
# T1 sequence (Q05097 whole entry): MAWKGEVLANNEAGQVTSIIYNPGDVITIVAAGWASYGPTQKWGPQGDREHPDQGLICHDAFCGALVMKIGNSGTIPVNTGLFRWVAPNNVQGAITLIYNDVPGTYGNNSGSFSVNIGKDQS
Structure (SMILES),Kd (LecA [2]) [µM],koff (LecA [2]) [s⁻¹],IC50 (LecA [1]; [5]) [µM],other results
O=C(CCc1ccc(O[C@@H]2O[C@H](CO)[C@H](O)[C@H](O)[C@H]2O)cc1)Nc1ccc(OCCCOc2ccc(NC(=O)CCc3ccc(O[C@@H]4O[C@H](CO)[C@H](O)[C@H](O)[C@H]4O)cc3)cn2)nc1 [Compound N31],–,–,–,IC50 (LecA [1]; [4]): 2.7 ± 1.1 µM
O=C(NCc1cn(CCOCCOCCOCCNC(=S)Nc2ccc3c(c2)C(=O)OC32c3ccc(O)cc3Oc3cc(O)ccc32)nn1)c1ccc(C(Oc2ccc(/C=N/NC(=O)c3ccc(O[C@@H]4OC(CO)[C@H](O)C(O)C4O)cc3)cc2)Oc2ccc(/C=N/NC(=O)c3ccc(O[C@@H]4OC(CO)[C@H](O)C(O)C4O)cc3)cc2)cc1 (stereo partly drawn) [Compound 13],0.0372 ± 0.0029,0.00593 ± 0.00051,–,"kon (LecA [2]; Table 2, SPR, three independent experiments): 160 ± 19 ×10^3/Ms"
O=C(NN=Cc1ccc(OCOc2ccc(C=NNC(=O)c3ccc(OC4OC(CO)C(O)C(O)C4O)cc3)cc2)cc1)c1ccc(OC2OC(CO)C(O)C(O)C2O)cc1 (stereo not drawn) [Compound B6p],0.0305 ± 0.028,–,3.7 ± 1.8,–
O=C(NN=Cc1ccc(OCCOc2ccc(C=NNC(=O)c3ccc(OC4OC(CO)C(O)C(O)C4O)cc3)cc2)cc1)c1ccc(OC2OC(CO)C(O)C(O)C2O)cc1 (stereo not drawn) [Compound C6p],0.0417 ± 0.0239,–,3.8 ± 1.6,–
O=C(CCc1ccc(O[C@@H]2O[C@H](CO)[C@H](O)[C@H](O)[C@H]2O)cc1)Nc1ccc(OCCCCOc2ccc(NC(=O)CCc3ccc(O[C@@H]4O[C@H](CO)[C@H](O)[C@H](O)[C@H]4O)cc3)cc2)cc1 [Compound K30],–,0.00366 ± 0.00042,–,–
NNC(=O)c1ccc(O[C@@H]2OC(CO)[C@H](O)C(O)C2O)cc1 (stereo partly drawn) [reference compound],–,–,30.3,"IC50 (LecA [1]; FP IC50, Table 1, 20 μM LecA, 10 nM reporter ligand 8, TBS/Ca2+ buffer with 4% DMSO (*)): 22.6 ± 8.7 µM"
O=C(/C=C/c1ccc(O[C@@H]2O[C@H](CO)[C@H](O)[C@H](O)[C@H]2O)cc1)Nc1ccc(OCCCCOc2ccc(NC(=O)/C=C/c3ccc(O[C@@H]4O[C@H](CO)[C@H](O)[C@H](O)[C@H]4O)cc3)cc2)cc1 [Compound K18],–,0.00388 ± 0.00043,–,–
O=C(/C=C/c1ccc(O[C@@H]2O[C@H](CO)[C@H](O)[C@H](O)[C@H]2O)cc1)Nc1ccc(OCOc2ccc(NC(=O)/C=C/c3ccc(O[C@@H]4O[C@H](CO)[C@H](O)[C@H](O)[C@H]4O)cc3)cc2)cc1 [Compound H18],–,0.00379 ± 0.00089,–,–
O=C(CCc1ccc(O[C@@H]2O[C@H](CO)[C@H](O)[C@H](O)[C@H]2O)cc1)Nc1ccc(OCOc2ccc(NC(=O)CCc3ccc(O[C@@H]4O[C@H](CO)[C@H](O)[C@H](O)[C@H]4O)cc3)cc2)cc1 [Compound H30],–,0.00462 ± 0.0002,–,–
O=C(CCc1ccc(O[C@@H]2O[C@H](CO)[C@H](O)[C@H](O)[C@H]2O)cc1)Nc1ccc(Oc2ccc(NC(=O)CCc3ccc(O[C@@H]4O[C@H](CO)[C@H](O)[C@H](O)[C@H]4O)cc3)cc2)cc1 [Compound G30],–,0.00349 ± 8e-05,–,–
O=C(NN=Cc1ccc(OCCCCOc2ccc(C=NNC(=O)c3cccc(OC4OC(CO)C(O)C(O)C4O)c3)cc2)cc1)c1cccc(OC2OC(CO)C(O)C(O)C2O)c1 (stereo not drawn) [Compound E6m],0.0257 ± 0.0192,–,6.3 ± 6.4,–
O=C(CCc1ccc(O[C@@H]2O[C@H](CO)[C@H](O)[C@H](O)[C@H]2O)cc1)Nc1ccc(OCCOc2ccc(NC(=O)CCc3ccc(O[C@@H]4O[C@H](CO)[C@H](O)[C@H](O)[C@H]4O)cc3)cc2)cc1 [Compound I30],–,0.00284 ± 6e-05,–,–
O=C(NN=Cc1ccc(OCCCOc2ccc(C=NNC(=O)c3cccc(OC4OC(CO)C(O)C(O)C4O)c3)cc2)cc1)c1cccc(OC2OC(CO)C(O)C(O)C2O)c1 (stereo not drawn) [Compound D6m],0.0659 ± 0.0062,–,–,–
"O=[N+]([O-])c1ccc(O[C@@H]2O[C@H](CO)[C@H](O)[C@H](O)[C@H]2O)cc1 [pNO2-Ph-β-Gal, reference compound]",–,–,–,IC50 (LecA [1]; [4]): 40.4 ± 12.9 µM
O=C(NN=Cc1ccc(OCCCOc2ccc(C=NNC(=O)c3ccc(OC4OC(CO)C(O)C(O)C4O)cc3)cc2)cc1)c1ccc(OC2OC(CO)C(O)C(O)C2O)cc1 (stereo not drawn) [Compound D6p],0.05 ± 0.0194,–,3.6 ± 1.7,–
O=C(NN=Cc1ccc(OCOc2ccc(C=NNC(=O)c3cccc(OC4OC(CO)C(O)C(O)C4O)c3)cc2)cc1)c1cccc(OC2OC(CO)C(O)C(O)C2O)c1 (stereo not drawn) [Compound B6m],0.0143 ± 0.006,–,3.1 ± 2,–
O=C(CCc1ccc(O[C@@H]2O[C@H](CO)[C@H](O)[C@H](O)[C@H]2O)cc1)Nc1ccc(OCCOc2ccc(NC(=O)CCc3ccc(O[C@@H]4O[C@H](CO)[C@H](O)[C@H](O)[C@H]4O)cc3)cn2)nc1 [Compound M31],–,0.00141 ± 5e-05,–,IC50 (LecA [1]; [4]): 4.1 ± 2.2 µM
O=C(CCc1ccc(O[C@@H]2O[C@H](CO)[C@H](O)[C@H](O)[C@H]2O)cc1)Nc1ccc(OCCCCOc2ccc(NC(=O)CCc3ccc(O[C@@H]4O[C@H](CO)[C@H](O)[C@H](O)[C@H]4O)cc3)cn2)nc1 [Compound O31],–,–,–,IC50 (LecA [1]; [4]): 3.2 ± 1.8 µM
O=C(CCc1ccc(O[C@@H]2O[C@H](CO)[C@H](O)[C@H](O)[C@H]2O)cc1)Nc1ccc(OCCCOc2ccc(NC(=O)CCc3ccc(O[C@@H]4O[C@H](CO)[C@H](O)[C@H](O)[C@H]4O)cc3)cc2)cc1 [Compound J30],–,0.00345 ± 0.00013,–,–
O=C(/C=C/c1ccc(O[C@@H]2O[C@H](CO)[C@H](O)[C@H](O)[C@H]2O)cc1)Nc1ccc(Oc2ccc(NC(=O)/C=C/c3ccc(O[C@@H]4O[C@H](CO)[C@H](O)[C@H](O)[C@H]4O)cc3)cc2)cc1 [Compound G18],–,0.00596 ± 0.00206,–,–
O=C(NN=Cc1ccc(OCCOc2ccc(C=NNC(=O)c3cccc(OC4OC(CO)C(O)C(O)C4O)c3)cc2)cc1)c1cccc(OC2OC(CO)C(O)C(O)C2O)c1 (stereo not drawn) [Compound C6m],0.0149 ± 0.0119,–,2 ± 1.9,–
O=C(/C=C/c1ccc(O[C@@H]2O[C@H](CO)[C@H](O)[C@H](O)[C@H]2O)cc1)Nc1ccc(OCCCOc2ccc(NC(=O)/C=C/c3ccc(O[C@@H]4O[C@H](CO)[C@H](O)[C@H](O)[C@H]4O)cc3)cn2)nc1 [Compound N32],–,–,–,IC50 (LecA [1]; [4]): 4.3 ± 2 µM
O=C(/C=C/c1ccc(O[C@@H]2O[C@H](CO)[C@H](O)[C@H](O)[C@H]2O)cc1)Nc1ccc(OCCOc2ccc(NC(=O)/C=C/c3ccc(O[C@@H]4O[C@H](CO)[C@H](O)[C@H](O)[C@H]4O)cc3)cn2)nc1 [Compound M32],–,0.00165 ± 0.00012,–,IC50 (LecA [1]; [4]): 7.5 ± 3.7 µM
O=C(/C=C/c1ccc(O[C@@H]2O[C@H](CO)[C@H](O)[C@H](O)[C@H]2O)cc1)Nc1ccc(OCCOc2ccc(NC(=O)/C=C/c3ccc(O[C@@H]4O[C@H](CO)[C@H](O)[C@H](O)[C@H]4O)cc3)cc2)cc1 [Compound I18],–,0.00249 ± 0.00028,–,–
O=C(/C=C/c1ccc(O[C@@H]2O[C@H](CO)[C@H](O)[C@H](O)[C@H]2O)cc1)Nc1ccc(OCCCOc2ccc(NC(=O)/C=C/c3ccc(O[C@@H]4O[C@H](CO)[C@H](O)[C@H](O)[C@H]4O)cc3)cc2)cc1 [Compound J18],–,0.00251 ± 0.00022,–,–
O=C(NN=Cc1ccc(Oc2ccc(C=NNC(=O)c3cccc(OC4OC(CO)C(O)C(O)C4O)c3)cc2)cc1)c1cccc(OC2OC(CO)C(O)C(O)C2O)c1 (stereo not drawn) [Compound A6m],0.0166 ± 0.002,–,4.1 ± 3,–
N.N.O=C(CCc1ccc(O[C@@H]2OC(CO)[C@H](O)C(O)C2O)cc1)Nc1ccc(CCc2ccc(NC(=O)CCc3ccc(O[C@@H]4OC(CO)[C@H](O)C(O)C4O)cc3)cc2S(=O)(=O)O)c(S(=O)(=O)O)c1 (stereo partly drawn) [Compound 35],–,–,–,Kd (LecA [3]; [6]): 0.081 µM; Kd (LecA [3]; [7]): 0.146 µM; N (ITC stoichiometry) (LecA [3]; [6]): 0.55; ΔH (LecA [3]; [6]): -19.2 kcal/mol; ΔS (LecA [3]; [6]): −31.8 cal/mol/deg; N (ITC stoichiometry) (LecA [3]; [7]): 0.54; ΔH (LecA [3]; [7]): -19.5 kcal/mol; ΔS (LecA [3]; [7]): −34.3 cal/mol/deg; IC50 (LecA [1]; [4]): 4 ± 2.4 µM
O=C(NN=Cc1ccc(Oc2ccc(C=NNC(=O)c3ccc(OC4OC(CO)C(O)C(O)C4O)cc3)cc2)cc1)c1ccc(OC2OC(CO)C(O)C(O)C2O)cc1 (stereo not drawn) [Compound A6p],0.0217 ± 0.0076,–,4.3 ± 2.3,–
O=C(NN=Cc1ccc(OCCCCOc2ccc(C=NNC(=O)c3ccc(OC4OC(CO)C(O)C(O)C4O)cc3)cc2)cc1)c1ccc(OC2OC(CO)C(O)C(O)C2O)cc1 (stereo not drawn) [Compound E6p],0.094 ± 0.0289,–,4.9 ± 1.4,–
